Laboratory results published in patent US8318657B2, “Methods and compositions for preventing and/or treating pancreatitis” (Flinders Technologies Pty Ltd., priority 2005, dated 2012).
“Also recorded” adds a separate entry of the source. Square brackets hold non-standard residues; d marks the D form. Ends that are not written are not given here. Peptide text beside a SMILES is read from it.

Assays:
[1] = system: mice without acute pancreatitis; experiment: Control groups: mice given galanin or galanin antagonist alone (saline, no caerulein); settings: mice without AP
GALR2 = target: T1, GALR2 (Homo sapiens, UniProt O43603); settings: GALR2 vs GALR1; cited from earlier work
T1 sequence (O43603 1-387): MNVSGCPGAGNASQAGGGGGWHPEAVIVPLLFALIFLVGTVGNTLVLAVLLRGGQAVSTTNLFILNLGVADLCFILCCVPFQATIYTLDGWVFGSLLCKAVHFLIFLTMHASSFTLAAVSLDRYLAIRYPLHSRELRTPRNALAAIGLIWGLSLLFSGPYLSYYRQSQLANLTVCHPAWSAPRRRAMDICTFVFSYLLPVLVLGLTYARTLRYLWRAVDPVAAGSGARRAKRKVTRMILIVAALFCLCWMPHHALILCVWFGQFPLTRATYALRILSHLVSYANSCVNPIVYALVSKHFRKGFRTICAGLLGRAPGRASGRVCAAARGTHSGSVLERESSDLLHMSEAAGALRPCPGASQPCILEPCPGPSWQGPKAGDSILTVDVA

[2] = system: caerulein-induced acute pancreatitis (AP) in mice; experiment: Caerulein-induced acute pancreatitis in mice (mild model, 7 hourly i.p. injections) with galanin or galanin antagonists; assay type: in vivo, mouse (female Balb C or Swiss); settings: mouse caerulein AP
[3] = 20 nmol/kg i.p. with each caerulein injection, reduction of AP-induced level
[4] = 40 nmol/kg i.p. with each caerulein injection, vs AP alone
[5] = dose not given (20 and 40 nmol/kg tested)
[6] = dose not given (20 and 40 nmol/kg tested), decrease of AP-induced level
[7] = 40 nmol/kg i.p. with each caerulein injection, reduction of AP-induced level

CC(C)C[C@H](NC(=O)[C@H](CC(C)C)NC(=O)[C@@H](Cc1c[nH]c2ccccc12)NC(=O)[C@H](Cc1ccccc1)NC(=O)[C@@H](Cc1c[nH]c2ccccc12)NC(=O)[C@H](CCC(N)=O)NC(=O)[C@H](CCC(N)=O)NC(=O)[C@@H]1CCCN1C(=O)[C@H](CCCCN)NC(=O)[C@@H]1CCCN1C(=O)[C@@H](CCCNC(=N)N)NC(=O)[C@@H]1CCCN1C(=O)CNC(=O)[C@H](CC(C)C)NC(=O)[C@H](CC(C)C)NC(=O)[C@H](Cc1ccc(O)cc1)NC(=O)CNC(=O)[C@H](C)NC(=O)[C@H](CO)NC(=O)[C@H](CC(N)=O)NC(=O)[C@H](CC(C)C)NC(=O)[C@@H](NC(=O)[C@H](Cc1c[nH]c2ccccc12)NC(=O)CN)[C@@H](C)O)C(N)=O [C7, Galanin(1-13)-spantide amide] (H-GWTLNSAGYLLGP[dR]PKPQQ[dW]F[dW]LL-NH2)
pancreatic myeloperoxidase (MPO) activity ([1]; 40 nmol/kg alone): produced an increase in pancreatic MPO activity; also recorded: significantly elevated pancreatic MPO activity

CC(C)C[C@H](NC(=O)CNC(=O)[C@H](CC(N)=O)NC(=O)[C@H](CCCCN)NC(=O)[C@H](CC(=O)O)NC(=O)[C@H](CO)NC(=O)[C@H](Cc1ccccc1)NC(=O)[C@H](CO)NC(=O)[C@H](CCCNC(=N)N)NC(=O)[C@H](Cc1cnc[nH]1)NC(=O)[C@H](CC(N)=O)NC(=O)CNC(=O)[C@@H](NC(=O)[C@H](C)NC(=O)[C@H](Cc1cnc[nH]1)NC(=O)[C@@H]1CCCN1C(=O)CNC(=O)[C@H](CC(C)C)NC(=O)[C@H](CC(C)C)NC(=O)[C@H](Cc1ccc(O)cc1)NC(=O)CNC(=O)[C@H](C)NC(=O)[C@H](CO)NC(=O)[C@H](CC(N)=O)NC(=O)[C@H](CC(C)C)NC(=O)[C@@H](NC(=O)[C@H](Cc1c[nH]c2ccccc12)NC(=O)CN)[C@@H](C)O)C(C)C)C(=O)N[C@H](C(=O)N[C@@H](CO)C(=O)O)[C@@H](C)O [Galanin]
plasma amylase activity ([1]; 10 nmol/kg alone, vs baseline): did not increase plasma amylase activity above baseline activity | plasma lipase activity ([1]; 10 nmol/kg alone, vs baseline): did not increase plasma lipase activity above baseline activity | pancreatic myeloperoxidase (MPO) activity ([1]; 10 nmol/kg alone, vs saline control): did not significantly increase pancreatic MPO activity above that measured in saline control

Galanin 2-29: galanin fragment 2-29 (WTLNSAGYLLGPHAVGNHRSFSDKNGLT; ends and bridges not checked; UniProt P22466 34-61, looked up, fragment)
affinity for GALR2 relative to GALR1 (GALR2): higher affinity than GALR1

Galanin(1-13)-Pro-Pro-Ala-Leu-Ala-Leu-Ala amide (GWTLNSAGYLLGPPPALALA-NH2) [M40]
pancreatic acinar cell vacuolization score ([2]; 20 nmol/kg): significantly reduced | pancreatic myeloperoxidase (MPO) activity [2, 3]: significantly reduced | pancreatic acinar cell vacuolization score ([2]; 40 nmol/kg): significantly reduced | pancreatic myeloperoxidase (MPO) activity [2, 4]: significantly reduced | pancreatitis-induced plasma hyperenzymemia ([2]; co-treatment, 20 and 40 nmol/kg tested): failure to reduce the pancreatitis-induced plasma hyperenzymemia | pancreatic acinar cell necrosis score [2, 5]: without effect | pancreatic acinar cell vacuolization score [2, 5]: did | pancreatic myeloperoxidase (MPO) activity [2, 6]: decreased

M35: GWTLNSAGYLLGPPPGFSPFR (SEQ ID NO: 15); amino terminal portion of galanin linked to bradykinin
pancreatic myeloperoxidase (MPO) activity [2, 3]: significantly reduced | pancreatic acinar cell necrosis score ([2]; 40 nmol/kg (high dose), histology scoring system): reduced the necrosis score; also recorded: significantly reduced | plasma amylase activity [2, 7]: depressed; also recorded: significantly reduced | plasma lipase activity [2, 7]: significantly reduced | pancreatic myeloperoxidase (MPO) activity [2, 4]: significantly reduced | pancreatic acinar cell vacuolization score [2, 5]: failed to improve the acute pancreatitic-induced vacuolization; also recorded: without effect | pancreatic myeloperoxidase (MPO) activity [2, 6]: decreased
